# Reference: patent US6399649B1, “Compositions and methods for the treatment of chronic lymphocytic leukemia” (Boston Medical Center Corporation, priority 1998, dated 2002)
# Legend:
# [1] = system: CLL cells; assay: cAMP assay (RIA) in CLL cells; format: cell-based, human; details: two hours; used alone and combined with forskolin
# Protocol: (§1) One million cells in 1 mL were treated for two hours with or without drugs. 0.8 mL of cells were pelleted by spinning at 4,000 rpm (RCF=1,310) in microcentrifuge tube. After discarding 0.7 mL, 400 uL of ethanol was added, vortexed and left on ice for five minutes. Particulate cell debris was removed by centrifugation at 14,000 rpm (RCF=16,000). The supernatant was stored at −20° C. until the day of assay, at which time it was dried in a Speedivac (Savant, Farmingdale, N.Y.) to a volume of 50 uL. After ten-fold dilution in 10 mMol/L Tris pH 8.0, 1 mMol/L EDTA, the cAMP sample was analyzed for cAMP concentration using a cAMP RIA kit (NEN, Boston, Mass.) according to the manufacturer's instructions using the nonacetylated protocol.
# In this example, it was determined what role type 1 and type 4 PDE activity might play in the catabolism of cyclic nucleotides in CLL cells. cAMP levels were measured after culturing leukemic cells with varying concentrations of PDE-isoform specific inhibitors, either alone or in conjunction with an activator of adenylate cyclase, the diterpene forskolin. Specifically, one million freshly isolated cells were incubated with the indicated drugs for two hours prior to analysis of cAMP in cell lysates using a radioimmunoassay. The results are shown in FIG. 4 and the data are the mean of three individually assayed culture wells.
# [2] = system: CLL cells; assay: DNA ladder gel assay; format: cell-based, human; details: 72 hours; 10 uMol/L rolipram, 40 uMol/L forskolin
# Protocol: 10 million purified CLL cells were harvested by centrifugation following exposure to drugs during a 72 hour tissue culture incubation. Cells were lysed in 0.5 mL of 20 mMol/L Tris (pH 7.4), 0.4 mMol/L EDTA, 0.25% Triton X. After 15 minutes of incubation at room temperature, nuclei were removed by centrifugation at 14,000 rpm (RCF=16,000). The supernatant was transferred to a new tube and soluble DNA precipitated overnight at −20° C. following the addition of […] of 5 Mol/L NaCl and […] of isopropanol. After centrifugation at 14000 rpm for 10 minutes, followed by a 70% ethanol wash, the pellet was resuspended in 20 uL of 10 mMol/L Tris (pH 8.0), 1 mMol/L EDTA, 0.1 mg/mL RNase and incubated at 37° C. for 30 minutes prior to electrophoresis on 1.6% TBE agarose gels. DNA fragments were visualized by UV light after staining the gels with ethidium bromide.
# Consequently, a study of the activity of type 4-specific PDE inhibitors as inducers of cAMP-mediated apoptosis in leukemic cells from CLL patients was carried out. CLL cells were incubated for 72 hours either alone or with 10 uMol/L rolipram, 40 uMol/L forskolin or both agents. We tested whether rolipram induces intemucleosomal DNA fragmentation characteristic of apoptosis by isolating soluble DNA from the leukemic cells with detergent treatment, then removing DNA from intact non-apoptotic nuclei by centrifugation. […]
# [3] = system: magnetic bead purified CD19+B cells; assay: Hoechst 33342 apoptosis assay, CD19+ B cells; format: cell-based, human
# Protocol: Hoechst 33342 was dissolved in water and frozen at 33 mg/mL at −20° C. One million cells/well were incubated in duplicate or triplicate in 48 well tissue culture plates (Costar, Cambridge, Mass.) with or without drug treatment for […] in 1 mL of culture media. Cells were transferred to 12×75 mm polystyrene Falcon® 2054 FACS tubes (Becton Dickinson Labware, Lincoln Park, N.J.) and incubated for ten minutes at 37° C. with Hoechst 33342 at a final concentration of […]. 23 Cells were stored on ice until analysis on a FACS Vantage flow cytometer (Becton Dickinson, San Jose, Calif.). Hoechst 33342 dye fluorescence was excited with a UV laser and detected using a 450 bandpass filter; Data was analyzed using Cellquest software (Becton Dickinson, San Jose, Calif.).
# This example describes the effect of PDE4 inhibition on normal B and T cells. […] Specifically, one million WMC were cultured with the indicated concentration of rolipram with or without the addition of 40 uMol/L forskolin for 72 hours in the presence of 2 units/mL IL-2. Apoptosis was determined by Hoechst 33342 flow cytometry. […] In contrast, magnetic bead purified CD19+B cells were sensitive to rolipram, although the increment in apoptosis observed was superimposed on a high basal apoptosis rate that has previously been reported in cultured human B cells. Given that crosslinking of cell surface immunoglobulin on resting B cells has been reported to reduce basal and forskolin-induced apoptosis in culture, we also stimulated CD19+ cells with a polyclonal Fab′2 anti-IgM/IgG reagent 30 minutes prior to the addition of the phosphodiesterase inhibitor.
# [4] = system: CLL cells, resting or anti-Ig activated CD19+ cells, IL-2 supplemented WMC; assay: cAMP time course in four cell populations; format: cell-based, human; details: 24 hours; any of the four cell populations
# Protocol: as §1, with “One million cells in 1 mL were treated for two hours with or without drugs.” left out
# For each of the four cell populations, two or six hours after drug treatment, cAMP levels were higher for rolipram/forskolin-treated cells than for forskolin only treated cells (test: one tailed significance level<0.05) (FIG. 9).
# [5] = cited from earlier work
compound,measurement,setting,value
"COc1ccc(C2CNC(=O)C2)cc1OC1CCCC1 (racemic) [rolipram, 4-(3-cyclopentyloxy-4-methoxyphenyl)-2-pyrrolidone]",CLL cAMP levels,[1],augmented CLL cAMP levels
same,internucleosomal DNA fragmentation,[2],pronounced internucleosomal DNA fragmentation
same,apoptosis of anti-Ig stimulated CD19+ B cells,[3]; polyclonal Fab'2 anti-IgM/IgG 30 minutes prior to inhibitor,markedly reduced both basal apoptosis and the sensitivity of the B cells to rolipram
same,apoptosis of CD19+ B cells,"[3]; unstimulated, high basal apoptosis rate",sensitive
same,augmentation of forskolin-stimulated cAMP accumulation,[4],no longer significant rolipram-induced augmentation
same,emesis,"[5]; humans, higher dosages",emetogenic
same,tolerability,[5]; studied as an antidepressant in humans,well tolerated
